Tested on: T-47D spheroids with HUVEC/MSC, viability
Assay: Anticancer human tumor T-47D cell line growth inhibition [PI3K];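 note: spheroids exposed to agents for seven days before reading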;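 for viability, T/C: percent of DMSO vehicle control luminescence so 100% = untreated growth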
Conditions: for IC50: curve of first compound; for viability, T/C: stronger effect = lower value; active = viability on the fitted dose curve at most 10% of control; inactive = the rest
In short: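 Stroma-containing spheroids: tumor line, pooled-donor HUVEC, hMSC. Treatments: targeted agents with PI3K inhibitors. Dosing: clinically relevant, half-log spacing, 10 microM ceiling without known Cmax. Read-out: cell viability.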

CNC(=O)c1ccc(N2C(=S)N(c3ccc(C#N)c(C(F)(F)F)c3)C(=O)C2(C)C)cc1F + CC(Nc1ncnc2nc[nH]c12)c1cc2cccc(Cl)c2c(=O)n1-c1ccccc1
> 10 µM: IC50 (second compound 0.0316 µM) | IC50 (second compound 0.1 µM) | IC50 (second compound 0.316 µM) | IC50 (second compound 1 µM) | IC50 (second compound 3.16 µM) | IC50 (second compound 10 µM)
inactive: viability, T/C (second compound 0.0316 µM, first compound 0.0316 µM) 117% | viability, T/C (second compound 0.0316 µM, first compound 0.1 µM) 108% | viability, T/C (second compound 0.0316 µM, first compound 0.316 µM) 96.2% | viability, T/C (second compound 0.0316 µM, first compound 1 µM) 85.9% | viability, T/C (second compound 0.0316 µM, first compound 3.16 µM) 97.1% | viability, T/C (second compound 0.0316 µM, first compound 10 µM) 79.6% | viability, T/C (second compound 0.1 µM, first compound 0.0316 µM) 101% | viability, T/C (second compound 0.1 µM, first compound 0.1 µM) 85.4% | viability, T/C (second compound 0.1 µM, first compound 0.316 µM) 114% | viability, T/C (second compound 0.1 µM, first compound 1 µM) 99.9% | viability, T/C (second compound 0.1 µM, first compound 3.16 µM) 95.4% | viability, T/C (second compound 0.1 µM, first compound 10 µM) 80.2% | viability, T/C (second compound 0.316 µM, first compound 0.0316 µM) 89% | viability, T/C (second compound 0.316 µM, first compound 0.1 µM) 88% | viability, T/C (second compound 0.316 µM, first compound 0.316 µM) 84.2% | viability, T/C (second compound 0.316 µM, first compound 1 µM) 80.7% | viability, T/C (second compound 0.316 µM, first compound 3.16 µM) 92.3% | viability, T/C (second compound 0.316 µM, first compound 10 µM) 86.5% | viability, T/C (second compound 1 µM, first compound 0.0316 µM) 93.7% | viability, T/C (second compound 1 µM, first compound 0.1 µM) 87.5% | viability, T/C (second compound 1 µM, first compound 0.316 µM) 78.1% | viability, T/C (second compound 1 µM, first compound 1 µM) 86% | viability, T/C (second compound 1 µM, first compound 3.16 µM) 91.7% | viability, T/C (second compound 1 µM, first compound 10 µM) 76.9% | viability, T/C (second compound 3.16 µM, first compound 0.0316 µM) 88.5% | viability, T/C (second compound 3.16 µM, first compound 0.1 µM) 76.4% | viability, T/C (second compound 3.16 µM, first compound 0.316 µM) 86% | viability, T/C (second compound 3.16 µM, first compound 1 µM) 85.5% | viability, T/C (second compound 3.16 µM, first compound 3.16 µM) 95.2% | viability, T/C (second compound 3.16 µM, first compound 10 µM) 94% | viability, T/C (second compound 10 µM, first compound 0.0316 µM) 96.8% | viability, T/C (second compound 10 µM, first compound 0.1 µM) 90.9% | viability, T/C (second compound 10 µM, first compound 0.316 µM) 84.3% | viability, T/C (second compound 10 µM, first compound 1 µM) 84.1% | viability, T/C (second compound 10 µM, first compound 3.16 µM) 98.3% | viability, T/C (second compound 10 µM, first compound 10 µM) 88.7%
